The test system of assay [1] is CD4 cells, isolated from healthy donor PMBCs, infected with HIV VSV-G pseudotyped GFP-GAG reporter virus. As to the kind of experiment: tissue or blood. The following applies: Homo sapiens, 72 h. In kind it is cell-based.
Assay [2] deals with monocytic THP1 cells infected with HIV VSV-G pseudotyped GFP-NEF reporter virus. Kind of assay: cells. In kind it is cell-based. The following applies: Human immunodeficiency virus 1, THP-1, 24 h.

The structures appear in SMILES notation.

By EC50 is commonly meant the concentration giving half of the maximal effect. A high value points to lower potency in that assay.

For the compound `Cc1cc(/C=C/C#N)cc(C)c1Oc1nc(NC23CC(C#N)(C2)C3)nc2nc(C(C)(F)F)n(C)c12` [Compound 41, (E)-3-((6-(4-(2-cyanovinyl)-2,6-dimethylphenoxy)-8-(1,1-difluoroethyl)-7-methyl-7H-purin-2-yl)amino)bicyclo[1.1.1]pentane-1-carbonitrile], the EC50 in assay [1] came to 77.6 nM.

Consider `Cc1cc(/C=C/C#N)cc(C)c1Oc1nc(NC23CC(C#N)(C2)C3)nc2nc[nH]c12` [Compound 44, (E)-3-((6-(4-(2-cyanovinyl)-2,6-dimethylphenoxy)-7H-purin-2-yl)amino)bicyclo[1.1.1]pentane-1-carbonitrile], for which the EC50 in assay [1] came to 109 nM.

For the compound `Cc1nc2nc(NC34CC(C#N)(C3)C4)nc(Oc3c(F)cc(/C=C/C#N)cc3F)c2[nH]1` [Compound 58, (E)-3-((6-(4-(2-cyanovinyl)-2,6-difluorophenoxy)-8-methyl-7H-purin-2-yl)amino)bicyclo[1.1.1]pentane-1-carbonitrile], in assay [1], the EC50 was determined as 430 nM.

The compound `Cc1nc2nc(NC34CC(C#N)(C3)C4)nc(Oc3c(Cl)cc(/C=C/C#N)cc3Cl)c2[nH]1` [Compound 59, (E)-3-((6-(2,6-dichloro-4-(2-cyanovinyl)phenoxy)-8-methyl-7H-purin-2-yl)amino)bicyclo[1.1.1]pentane-1-carbonitrile] returned an EC50 in assay [1] of 336 nM.

As for `Cc1cc(/C=C/C#N)cc(C)c1Oc1nc(NC23CC(C#N)(C2)C3)nc2ncsc12` [Compound 75, (E)-3-((7-(4-(2-cyanovinyl)-2,6-dimethylphenoxy)thiazolo[4,5-d]pyrimidin-5-yl)amino)bicyclo[1.1.1]pentane-1-carbonitrile], the EC50 in assay [1] worked out at 55 nM.

With `Cc1cc(/C=C/C#N)cc(C)c1Oc1nc(NC23CC(C#N)(C2)C3(F)F)nc2[nH]nc(C)c12` [Compound 77, (E)-3-((4-(4-(2-cyanovinyl)-2,6-dimethylphenoxy)-3-methyl-1H-pyrazolo[3,4-d]pyrimidin-6-yl)amino)-2,2-difluorobicyclo[1.1.1]pentane-1-carbonitrile], in assay [1], the response was half-maximal at 28.2 nM (EC50).

`Cc1cc(/C=C/C#N)cc(C)c1Oc1nc(NC23CC(C#N)(C2)C3(F)F)nc2c1CCO2` [Compound 78, (E)-3-((4-(4-(2-cyanovinyl)-2,6-dimethylphenoxy)-5,6-dihydrofuro[2,3-d]pyrimidin-2-yl)amino)-2,2-difluorobicyclo[1.1.1]pentane-1-carbonitrile] displayed an EC50 in assay [1] of 12.1 nM.

For `Cc1cc(/C=C/C#N)cc(Cl)c1Oc1nc(NC23CC(C#N)(C2)C3)nc2[nH]nc(C)c12` [Compound 85, (E)-3-((4-(2-chloro-4-(2-cyanovinyl)-6-methylphenoxy)-3-methyl-1H-pyrazolo[3,4-d]pyrimidin-6-yl)amino)bicyclo[1.1.1]pentane-1-carbonitrile], the EC50 in assay [1] was determined as 20.9 nM.

Consider `CCn1cnc2nc(NC34CC(C#N)(C3)C4)nc(Oc3c(C)cc(/C=C/C#N)cc3C)c21` [Compound 114, (E)-3-((6-(4-(2-cyanovinyl)-2,6-dimethylphenoxy)-7-ethyl-7H-purin-2-yl)amino)bicyclo[1.1.1]pentane-1-carbonitrile], for which the response in assay [1] was half-maximal at 51.1 nM (EC50).

`Cc1cc(/C=C/C#N)cc(C)c1Oc1nc(NC23CC(C#N)(C2)C3)nc2c1CSC2` [Compound 116, (E)-3-((4-(4-(2-cyanovinyl)-2,6-dimethylphenoxy)-5,7-dihydrothieno[3,4-d]pyrimidin-2-yl)amino)bicyclo[1.1.1]pentane-1-carbonitrile] gave an EC50 in assay [1] of 63.3 nM.

As to `Cc1cc(/C=C/C#N)cc(C)c1Oc1nc(NC23CC(C#N)(C2)C3)nc2c1COC2` [Compound 117], it took 23.9 nM to reach a half-maximal effect in assay [1] (EC50).

With `Cc1cc(/C=C/C#N)cc(C)c1Oc1nc(NC23CC(C#N)(C2)C3)nc2c1CCO2` [Compound 118, (E)-3-((4-(4-(2-cyanovinyl)-2,6-dimethylphenoxy)-5,6-dihydrofuro[2,3-d]pyrimidin-2-yl)amino)bicyclo[1.1.1]pentane-1-carbonitrile], the half-maximal effective concentration (EC50) in assay [1] amounted to 80.4 nM.

In assay [1], `COC(=O)N1Cc2nc(NC34CC(C#N)(C3)C4)nc(Oc3c(C)cc(/C=C/C#N)cc3C)c2C1` [Compound 151, (E)-methyl 2-((3-cyanobicyclo[1.1.1]pentan-1-yl)amino)-4-(4-(2-cyanovinyl)-2,6-dimethylphenoxy)-5H-pyrrolo[3,4-d]pyrimidine-6(7H)-carboxylate] displayed a concentration for a half-maximal effect (EC50) of 76 nM.

In the case of `Cc1cc(/C=C/C#N)cc(C)c1Oc1nc(NC23CC(C#N)(C2)C3)nc2c1[C@@H](C)N(CC(F)F)C2=O` [Example 239, (R,E)-3-((4-(4-(2-cyanovinyl)-2,6-dimethylphenoxy)-6-(2,2-difluoroethyl)-5-methyl-7-oxo-6,7-dihydro-5H-pyrrolo[3,4-d]pyrimidin-2-yl)amino)bicyclo[1.1.1]pentane-1-carbonitrile], the EC50 in assay [2] came to 18.5 nM.

As for `Cc1cc(/C=C/C#N)cc(C)c1Oc1nc(NC23CC(C#N)(C2)C3)nc2c1[C@H](C)N(CC(F)F)C2=O` [Example 240, (S,E)-3-((4-(4-(2-cyanovinyl)-2,6-dimethylphenoxy)-6-(2,2-difluoroethyl)-5-methyl-7-oxo-6,7-dihydro-5H-pyrrolo[3,4-d]pyrimidin-2-yl)amino)bicyclo[1.1.1]pentane-1-carbonitrile], a half-maximal response in assay [2] (EC50) required 35.2 nM.

Turning to `Cc1cc(/C=C/C#N)cc(C)c1Oc1nc(NC23CC(C#N)(C2)C3)nc2c1C1(C)O[C@@H](C)CCN1C2=O` (stereo partly drawn) [Example 241, 3-(((6S)-4-(4-((E)-2-cyanovinyl)-2,6-dimethylphenoxy)-4b,6-dimethyl-10-oxo-4b,7,8,10-tetrahydro-6H-pyrimido[5′,4′:3,4]pyrrolo[2,1-b][1,3]oxazin-2-yl)amino)bicyclo[1.1.1]pentane-1-carbonitrile], a half-maximal response in assay [2] (EC50) required 34.8 nM.

For the compound `Cc1cc(/C=C/C#N)cc(C)c1Oc1nc(NC23CC(C#N)(C2)C3)nc2c1C1(C)SCCCN1C2=O` (stereo not drawn) [Example 246, (E)-3-((4-(4-(2-cyanovinyl)-2,6-dimethylphenoxy)-4b-methyl-10-oxo-4b,7,8,10-tetrahydro-6H-pyrimido[5′,4′:3,4]pyrrolo[2,1-b][1,3]thiazin-2-yl)amino)bicyclo[1.1.1]pentane-1-carbonitrile], the EC50 in assay [2] came out at 41.2 nM.

On to `Cc1cc(/C=C/C#N)cc(C)c1Oc1nc(NC23CC(C#N)(C2)C3)nc2c1[C@H](C(F)(F)F)NC2=O` [Example 247, (R,E)-3-((4-(4-(2-cyanovinyl)-2,6-dimethylphenoxy)-7-oxo-5-(trifluoromethyl)-6,7-dihydro-5H-pyrrolo[3,4-d]pyrimidin-2-yl)amino)bicyclo[1.1.1]pentane-1-carbonitrile], for which, in assay [2], a half-maximal effect (EC50) was put at 40.2 nM.

Compound `Cc1cc(/C=C/C#N)cc(C)c1Oc1nc(NC23CC(C#N)(C2)C3)nc2ccn(C)c12` [Example 250, 3-[[4-[4-[(E)-2-cyanovinyl]-2,6-dimethyl-phenoxy]-5-methyl-pyrrolo[3,2-d]pyrimidin-2-yl]amino]bicyclo[1.1.1]pentane-1-carbonitrile] showed an EC50 in assay [2] of 64 nM.

In turn, `Cc1cc(/C=C/C#N)cc(C)c1Oc1nc(NC23CC(C#N)(C2)C3)nc2c1C1(C)OCC(C(F)(F)F)CN1C2=O` (stereo not drawn) [Example 253, (E)-3-((4-(4-(2-cyanovinyl)-2,6-dimethylphenoxy)-4b-methyl-10-oxo-7-(trifluoromethyl)-4b,7,8,10-tetrahydro-6H-pyrimido[5′,4′:3,4]pyrrolo[2,1-b][1,3]oxazin-2-yl)amino)bicyclo[1.1.1]pentane-1-carbonitrile] registered an EC50 in assay [2] of 253 nM.

In assay [2], `Cc1cc(/C=C/C#N)cc(C)c1Oc1nc(NC23CC(C#N)(C2)C3)nc2c1[C@@H](C(F)(F)F)NC2=O` [Example 254, (S,E)-3-((4-(4-(2-cyanovinyl)-2,6-dimethylphenoxy)-7-oxo-5-(trifluoromethyl)-6,7-dihydro-5H-pyrrolo[3,4-d]pyrimidin-2-yl)amino)bicyclo[1.1.1]pentane-1-carbonitrile] showed an EC50 of 71.4 nM.

Take `COC(F)(F)C1NC(=O)c2nc(NC34CC(C#N)(C3)C4)nc(Oc3c(C)cc(/C=C/C#N)cc3C)c21` (stereo not drawn) [Example 255, (E)-3-((4-2-((2-cyanovinyl)-2,6-dimethylphenoxy)-5-(difluoro(methoxy)methyl)-7-oxo-6,7-dihydro-5H-pyrrolo[3,4-d]pyrimidin-2-yl)amino)bicyclo[1.1.1]pentane-1-carbonitrile]: the response in assay [2] was half-maximal at 52.5 nM (EC50).

`Cc1cc(/C=C/C#N)cc(C)c1Oc1nc(NC23CC(C#N)(C2)C3)nc2nn3c(c12)CCCC3` [Example 256, (E)-3-((4-(4-(2-cyanovinyl)-2,6-dimethylphenoxy)-5,6,7,8-tetrahydropyrido[1′,2′:1,5]pyrazolo[3,4-d]pyrimidin-2-yl)amino)bicyclo[1.1.1]pentane-1-carbonitrile]: in assay [2], the midpoint of the response, the EC50, lay at 36.1 nM.

Regarding `Cc1cc(/C=C/C#N)cc(C)c1Oc1nc(NC23CC(C#N)(C2)C3)nc2nn3c(c12)CCC3` [Example 257, (E)-3-((4-(4-(2-cyanovinyl)-2,6-dimethylphenoxy)-6,7-dihydro-5H-pyrrolo[1′,2′:1,5]pyrazolo[3,4-d]pyrimidin-2-yl)amino)bicyclo[1.1.1]pentane-1-carbonitrile], the EC50 in assay [2] came to 22.8 nM.

In assay [2], `C/C(C#N)=C\c1cc(C)c(Oc2nc(NC34CC(C#N)(C3)C4)nc3nn(C)cc23)c(C)c1` [Example 258, (E)-3-((4-(4-(2-cyanoprop-1-en-1-yl)-2,6-dimethylphenoxy)-2-methyl-2H-pyrazolo[3,4-d]pyrimidin-6-yl)amino)bicyclo[1.1.1]pentane-1-carbonitrile] had a concentration for a half-maximal effect (EC50) of 178 nM.

Take `Cc1cc(/C=C/C#N)cc(C)c1Oc1nc(NC23CC(C#N)(C2)C3)nc2nn3c(c12)COCC3` [Example 259, (E)-3-((4-(4-(2-cyanovinyl)-2,6-dimethylphenoxy)-7,8-dihydro-5H-pyrimido[4′,5′:3,4]pyrazolo[5,1-c][1,4]oxazin-2-yl)amino)bicyclo[1.1.1]pentane-1-carbonitrile]: a half-maximal effect in assay [2] (EC50) was put at 23.6 nM.

With `Cc1cc(/C=C/C#N)cc(C)c1Oc1nc(NC23CC(C#N)(C2)C3)nc2c1C(C)OC2` (stereo not drawn) [Example 263, (E)-3-((4-(4-(2-cyanovinyl)-2,6-dimethylphenoxy)-5-methyl-5,7-dihydrofuro[3,4-d]pyrimidin-2-yl)amino)bicyclo[1.1.1]pentane-1-carbonitrile], the EC50 in assay [2] stood at 60.4 nM.

The values above are taken from patent US20250333424A1, “ANTIVIRAL COMPOUNDS” (Gilead Sciences, Inc., priority 2024, published 2025).
